Experimental data from patent publication US20230093099A1, “COMPOUNDS AND METHODS OF TREATING CANCERS” (CULLGEN (SHANGHAI), INC., priority 2019, published 2023).

These compounds were tested on RS4;11 cells (assay: Cell viability assay (CellTiter-Glo) in RS4;11 cells). Conditions: Homo sapiens, 72 h; RS4;11 ALL cells treated for three days; read-out: cell viability inhibition IC50.
Format: cell-based
How it was run: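 RS4;11 cells seeded at 5000 per well, exposed for 3 days to 8- or 12-point 3-fold serial dilutions. Viability read by CellTiter-Glo luminescence; IC50 fitted by nonlinear least-squares regression.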

IC50 [nM] | Compound
< 100 | O=C(CN1CCC(n2cc(-c3cnc4cccc(-c5cc(F)c(CN6CCOCC6)c(F)c5)c4n3)cn2)CC1)NCCCCCCCCNc1ccc2c(c1)C(=O)N(C1CCC(=O)NC1=O)C2=O (stereo not drawn) [JA-180, 2-(4-(4-(8-(3,5-difluoro-4-(morpholinomethyl)phenyl)quinoxalin-2-yl)-1H-pyrazol-1-yl)piperidin-1-yl)-N-(8-((2-(2,6-dioxopiperidin-3-yl)-1,3-dioxoisoindolin-5-yl)amino)octyl)acetamide]
< 100 | CS(=O)(=O)c1ccc(-c2cccc3nc(Nc4ccc(N5CCN(C(=O)CCCCCCNc6ccc7c(c6)C(=O)N(C6CCC(=O)NC6=O)C7=O)CC5)cc4)nn23)cc1 (stereo not drawn) [JA-199, 2-(2,6-dioxopiperidin-3-yl)-5-((7-(4-(4-((5-(4-(methylsulfonyl)phenyl)-[1,2,4]triazolo[1,5-a]pyridin-2-yl)amino)phenyl)piperazin-1-yl)-7-oxoheptyl)amino)isoindoline-1,3-dione]

Same assay, conditions: Homo sapiens, 72 h; RS4;11 cells; cell viability, 3 days, CellTiter-Glo; read-out: IC50

IC50 [nM] | Compound
88.6 | O=C(CN1CCC(n2cc(-c3cnc4cccc(-c5cc(F)c(CN6CCOCC6)c(F)c5)c4n3)cn2)CC1)NCCCCCCCCNc1ccc2c(c1)C(=O)N(C1CCC(=O)NC1=O)C2=O (stereo not drawn) [JA-180, 2-(4-(4-(8-(3,5-difluoro-4-(morpholinomethyl)phenyl)quinoxalin-2-yl)-1H-pyrazol-1-yl)piperidin-1-yl)-N-(8-((2-(2,6-dioxopiperidin-3-yl)-1,3-dioxoisoindolin-5-yl)amino)octyl)acetamide]
> 10000 | Cc1cnc(Nc2ccc(N3CCN(C(=O)CCCCCCCCCC(=O)N[C@H](C(=O)N4C[C@H](O)C[C@H]4C(=O)NCc4ccc(-c5scnc5C)cc4)C(C)(C)C)CC3)cc2)nc1Nc1cccc(S(=O)(=O)NC(C)(C)C)c1 [JA-029, (2S,4R)-1-((S)-2-(11-(4-(4-((4-((3-(N-(tert-Butyl)sulfamoyl)phenyl)amino)-5-methylpyrimidin-2-yl)amino)phenyl)piperazin-1-yl)-11-oxoundecanamido)-3,3-dimethylbutanoyl)-4-hydroxy-N-(4-(4-methylthiazol-5-yl)benzyl)pyrrolidine-2-carboxamide]
> 10000 | Cc1ncsc1-c1ccc(CNC(=O)[C@@H]2C[C@@H](O)CN2C(=O)[C@@H](NC(=O)CCOCCOCCOCCOCCNC(=O)CN2CCC(n3cc(-c4cnc5cccc(-c6cc(F)c(CN7CCOCC7)c(F)c6)c5n4)cn3)CC2)C(C)(C)C)cc1 [JA-167, (2S,4R)-1-((S)-20-(tert-Butyl)-1-(4-(4-(8-(3,5-difluoro-4-(morpholinomethyl)phenyl)quinoxalin-2-yl)-1H-pyrazol-1-yl)piperidin-1-yl)-2,18-dioxo-6,9,12,15-tetraoxa-3,19-diazahenicosan-21-oyl)-4-hydroxy-N-(4-(4-methylthiazol-5-yl)benzyl)pyrrolidine-2-carboxamide]
32.5 | CS(=O)(=O)c1ccc(-c2cccc3nc(Nc4ccc(N5CCN(C(=O)CCCCCCNc6ccc7c(c6)C(=O)N(C6CCC(=O)NC6=O)C7=O)CC5)cc4)nn23)cc1 (stereo not drawn) [JA-199, 2-(2,6-dioxopiperidin-3-yl)-5-((7-(4-(4-((5-(4-(methylsulfonyl)phenyl)-[1,2,4]triazolo[1,5-a]pyridin-2-yl)amino)phenyl)piperazin-1-yl)-7-oxoheptyl)amino)isoindoline-1,3-dione]
24.6 | CS(=O)(=O)c1ccc(-c2cccc3nc(Nc4ccc(N5CCN(CCCCCC#Cc6ccc7c(c6)C(=O)N(C6CCC(=O)NC6=O)C7=O)CC5)cc4)nn23)cc1 (stereo not drawn) [JA-252, 2-(2,6-dioxopiperidin-3-yl)-5-(7-(4-(4-((5-(4-(methylsulfonyl)phenyl)-[1,2,4]triazolo[1,5-a]pyridin-2-yl)amino)phenyl)piperazin-1-yl)hept-1-yn-1-yl)isoindoline-1,3-dione]
137 | O=C1CCC(N2C(=O)c3ccc(CCCCCCC(=O)N4CCC(n5cc(-c6cnc7cccc(-c8cc(F)c(CN9CCOCC9)c(F)c8)c7n6)cn5)CC4)cc3C2=O)C(=O)N1 (stereo not drawn) [JA-257, 5-(7-(4-(4-(8-(3,5-Difluoro-4-(morpholinomethyl)phenyl)quinoxalin-2-yl)-1H-pyrazol-1-yl)piperidin-1-yl)-7-oxoheptyl)-2-(2,6-dioxopiperidin-3-yl)isoindoline-1,3-dione]
564 | Cc1cnc(Nc2ccc(N3CCN(CC(=O)NCCOCCOCCNc4cccc5c4C(=O)N(C4CCC(=O)NC4=O)C5=O)CC3)cc2)nc1Nc1cccc(S(=O)(=O)NC(C)(C)C)c1 (stereo not drawn) [JA-086, 2-(4-(4-((4-((3-(N-(tert-Butyl)sulfamoyl)phenyl)amino)-5-methylpyrimidin-2-yl)amino)phenyl)piperazin-1-yl)-N-(2-(2-(2-((2-(2,6-dioxopiperidin-3-yl)-1,3-dioxoisoindolin-4-yl)amino)ethoxy)ethoxy)ethyl)acetamide]
> 10000 | Cc1cnc(Nc2ccc(N3CCN(C(=O)CCOCCC(=O)N[C@H](C(=O)N4C[C@H](O)C[C@H]4C(=O)NCc4ccc(-c5scnc5C)cc4)C(C)(C)C)CC3)cc2)nc1Nc1cccc(S(=O)(=O)NC(C)(C)C)c1 [JA-031, (2S,4R)-1-((S)-2-(3-(3-(4-(4-((4-((3-(N-(tert-Butyl)sulfamoyl)phenyl)amino)-5-methylpyrimidin-2-yl)amino)phenyl)piperazin-1-yl)-3-oxopropoxy)propanamido)-3,3-dimethylbutanoyl)-4-hydroxy-N-(4-(4-methylthiazol-5-yl)benzyl)pyrrolidine-2-carboxamide]
> 10000 | Cc1cnc(Nc2ccc(N3CCN(C(=O)CCCCCCNc4ccc5c(c4)C(=O)N(C4CCC(=O)NC4=O)C5=O)CC3)cc2)nc1Nc1cccc(S(=O)(=O)NC(C)(C)C)c1 (stereo not drawn) [JA-230, N-(tert-butyl)-3-((2-((4-(4-(7-((2-(2,6-dioxopiperidin-3-yl)-1,3-dioxoisoindolin-5-yl)amino)heptanoyl)piperazin-1-yl)phenyl)amino)-5-methylpyrimidin-4-yl)amino)benzenesulfonamide]
890 | O=C(CN1CCC(n2cc(-c3cnc4cccc(-c5cc(F)c(CN6CCOCC6)c(F)c5)c4n3)cn2)CC1)NCCCCCNc1ccc2c(c1)C(=O)N(C1CCC(=O)NC1=O)C2=O (stereo not drawn) [JA-177, 2-(4-(4-(8-(3,5-Difluoro-4-(morpholinomethyl)phenyl)quinoxalin-2-yl)-1H-pyrazol-1-yl)piperidin-1-yl)-N-(5-((2-(2,6-dioxopiperidin-3-yl)-1,3-dioxoisoindolin-5-yl)amino)pentyl)acetamide]
723 | Cc1cnc(Nc2ccc(N3CCN(CC(=O)NCCOCCOCCNc4ccc5c(c4)C(=O)N(C4CCC(=O)NC4=O)C5=O)CC3)cc2)nc1Nc1cccc(S(=O)(=O)NC(C)(C)C)c1 (stereo not drawn) [JA-238, 2-(4-(4-((4-((3-(N-(tert-butyl)sulfamoyl)phenyl)amino)-5-methylpyrimidin-2-yl)amino)phenyl)piperazin-1-yl)-N-(2-(2-(2-((2-(2,6-dioxopiperidin-3-yl)-1,3-dioxoisoindolin-5-yl)amino)ethoxy)ethoxy)ethyl)acetamide]
> 500 | Cn1c(=O)n(C2CCC(=O)NC2=O)c2ccc(NCCCCCCC(=O)N3CCC(n4cc(-c5cnc6cccc(-c7cc(F)c(CN8CCOCC8)c(F)c7)c6n5)cn4)CC3)cc21 (stereo not drawn) [JA-289, 3-(5-((7-(4-(4-(8-(3,5-Difluoro-4-(morpholinomethyl)phenyl)quinoxalin-2-yl)-1H-pyrazol-1-yl)piperidin-1-yl)-7-oxoheptyl)amino)-3-methyl-2-oxo-2,3-dihydro-1H-benzo[d]imidazol-1-yl)piperidine-2,6-dione]
> 10000 | Cc1cnc(Nc2ccc(N3CCN(C(=O)CCOCCNc4ccc5c(c4)C(=O)N(C4CCC(=O)NC4=O)C5=O)CC3)cc2)nc1Nc1cccc(S(=O)(=O)NC(C)(C)C)c1 (stereo not drawn) [JA-232, N-(tert-butyl)-3-((2-((4-(4-(3-(2-((2-(2,6-dioxopiperidin-3-yl)-1,3-dioxoisoindolin-5-yl)amino)ethoxy)propanoyl)piperazin-1-yl)phenyl)amino)-5-methylpyrimidin-4-yl)amino)benzenesulfonamide]
1900 | O=C(CN1CCC(n2cc(-c3cnc4cccc(-c5cc(F)c(CN6CCOCC6)c(F)c5)c4n3)cn2)CC1)NCCCCCCNc1ccc2c(c1)C(=O)N(C1CCC(=O)NC1=O)C2=O (stereo not drawn) [JA-178, 2-(4-(4-(8-(3,5-Difluoro-4-(morpholinomethyl)phenyl)quinoxalin-2-yl)-1H-pyrazol-1-yl)piperidin-1-yl)-N-(6-((2-(2,6-dioxopiperidin-3-yl)-1,3-dioxoisoindolin-5-yl)amino)hexyl)acetamide]
> 10000 | Cc1ncsc1-c1ccc(CNC(=O)[C@@H]2C[C@@H](O)CN2C(=O)[C@@H](NC(=O)COCCNC(=O)CN2CCC(n3cc(-c4cnc5cccc(-c6cc(F)c(CN7CCOCC7)c(F)c6)c5n4)cn3)CC2)C(C)(C)C)cc1 [JA-153, (2S,4R)-1-((S)-2-(2-(2-(2-(4-(4-(8-(3,5-Difluoro-4-(morpholinomethyl)phenyl)quinoxalin-2-yl)-1H-pyrazol-1-yl)piperidin-1-yl)acetamido)ethoxy)acetamido)-3,3-dimethylbutanoyl)-4-hydroxy-N-(4-(4-methylthiazol-5-yl)benzyl)pyrrolidine-2-carboxamide]
> 10000 | CS(=O)(=O)c1ccc(-c2cccc3nc(Nc4ccc(N5CCN(CC(=O)NCCCCCCNc6ccc7c(c6)C(=O)N(C6CCC(=O)NC6=O)C7=O)CC5)cc4)nn23)cc1 (stereo not drawn) [JA-215, N-(6-((2-(2,6-dioxopiperidin-3-yl)-1,3-dioxoisoindolin-5-yl)amino)hexyl)-2-(4-(4-((5-(4-(methylsulfonyl)phenyl)-[1,2,4]triazolo[1,5-a]pyridin-2-yl)amino)phenyl)piperazin-1-yl)acetamide]
143 | Cc1cnc(Nc2ccc(N3CCN(CC(=O)NCCOCCNc4cccc5c4C(=O)N(C4CCC(=O)NC4=O)C5=O)CC3)cc2)nc1Nc1cccc(S(=O)(=O)NC(C)(C)C)c1 (stereo not drawn) [JA-087, 2-(4-(4-((4-((3-(N-(tert-Butyl)sulfamoyl)phenyl)amino)-5-methylpyrimidin-2-yl)amino)phenyl)piperazin-1-yl)-N-(2-(2-((2-(2,6-dioxopiperidin-3-yl)-1,3-dioxoisoindolin-4-yl)amino)ethoxy)ethyl)acetamide]
> 500 | Cn1c(=O)n(C2CCC(=O)NC2=O)c2cccc(NCCCCC(=O)N3CCN(c4ccc(Nc5nc6cccc(-c7ccc(S(C)(=O)=O)cc7)n6n5)cc4)CC3)c21 (stereo not drawn) [JA-290, 3-(3-Methyl-4-((5-(4-(4-((5-(4-(methylsulfonyl)phenyl)-[1,2,4]triazolo[1,5-a]pyridin-2-yl)amino)phenyl)piperazin-1-yl)-5-oxopentyl)amino)-2-oxo-2,3-dihydro-1H-benzo[d]imidazol-1-yl)piperidine-2,6-dione]
> 10000 | Cc1cnc(Nc2ccc(N3CCN(C(=O)COCCOCC(=O)N[C@H](C(=O)N4C[C@H](O)C[C@H]4C(=O)NCc4ccc(-c5scnc5C)cc4)C(C)(C)C)CC3)cc2)nc1Nc1cccc(S(=O)(=O)NC(C)(C)C)c1 [JA-032, (2S,4R)-1-((S)-2-(2-(2-(2-(4-(4-((4-((3-(N-(tert-Butyl)sulfamoyl)phenyl)amino)-5-methylpyrimidin-2-yl)amino)phenyl)piperazin-1-yl)-2-oxoethoxy)ethoxy)acetamido)-3,3-dimethylbutanoyl)-4-hydroxy-N-(4-(4-methylthiazol-5-yl)benzyl)pyrrolidine-2-carboxamide]
